Biological target: PKC-θ (Homo sapiens, UniProt Q04759)
Assay: Immunofluorescence of endogenous PKC in Jurkat cells
Assay type: cell-based
Settings: 30 minutes
Protocol: Cells were cultured in RPMI medium supplemented with 10% heat-inactivated FBS and penicillin-streptomycin. For treatment, cells were incubated in either DMSO or C-232A for 30 minutes at 37 °C. Cells were fixed in ice-cold methanol, washed, and blocked with 2% BSA for 60 minutes at RT. Blocked cells were stained with either a 5 μg/mL primary PKC-θ antibody (R&D Systems, catalog MAB4368) or a 1:100 primary PKC-α antibody (R&D Systems, catalog MAB5340SP) in PBS with 1% BSA at 22 °C for 90 minutes. Donkey anti-mouse IgG antibody conjugated with Alexa Fluor 647 (Thermo Fisher Scientific, catalog A-31571) at 2 μg/mL and goat anti-rat IgG H&L antibody conjugated with Alexa Fluor 488 (Abcam, catalog ab150157) were used as secondary antibodies, respectively, in PBS with 1% BSA at 22 °C for 60 minutes. After immunostaining, the cell suspension was mixed (1:1) with ProLong Gold antifade reagent containing DAPI (Life Technologies, catalog P36935) and 5 μL of the mix was applied onto a microscope slide, covered with a coverslip, and cured overnight in the dark at RT. Samples were imaged with a Leica SP8 confocal microscope. Image analysis was performed using ImageJ software.

Sequence of PKC-θ (Q04759 whole entry): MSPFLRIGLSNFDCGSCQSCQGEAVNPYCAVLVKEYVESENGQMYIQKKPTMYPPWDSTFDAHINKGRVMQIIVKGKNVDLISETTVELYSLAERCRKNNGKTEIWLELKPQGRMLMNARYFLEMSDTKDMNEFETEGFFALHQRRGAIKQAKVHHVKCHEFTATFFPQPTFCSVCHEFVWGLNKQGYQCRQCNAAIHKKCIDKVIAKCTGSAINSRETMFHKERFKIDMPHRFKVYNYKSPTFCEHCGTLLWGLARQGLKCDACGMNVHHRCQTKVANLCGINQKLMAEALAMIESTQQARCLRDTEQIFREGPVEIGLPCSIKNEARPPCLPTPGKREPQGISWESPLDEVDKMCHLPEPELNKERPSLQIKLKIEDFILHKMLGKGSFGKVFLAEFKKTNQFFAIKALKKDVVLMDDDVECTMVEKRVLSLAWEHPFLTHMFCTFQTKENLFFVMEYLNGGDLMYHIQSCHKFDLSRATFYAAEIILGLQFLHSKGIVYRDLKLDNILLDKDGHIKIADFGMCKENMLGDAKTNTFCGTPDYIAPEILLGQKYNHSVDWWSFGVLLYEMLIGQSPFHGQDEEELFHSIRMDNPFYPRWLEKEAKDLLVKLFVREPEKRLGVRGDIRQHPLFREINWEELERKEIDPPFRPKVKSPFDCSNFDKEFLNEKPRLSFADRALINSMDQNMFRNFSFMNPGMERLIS

For `Cc1ccc(C#Cc2ccc3oc(CC(C)(C)C(=O)OCC4(CO)CC(=CCC(CC(C)C)CC(C)C)C(=O)O4)cc3c2)cc1` (stereo not shown) [C-232A], the “translocation of endogenous PKC-θ from cytoplasm to cell edge” value was “efficient translocation of endogenous PKC-θ to the plasmalemma”.

From publication PMC11801715, “Activating PKC-ε induces HIV expression with improved tolerability” (PLOS Pathogens, 2025)
